# Test results taken from publication PMC4904262 (ACS Medicinal Chemistry Letters, 2016).
# What was measured:
# [1] = target: FLT4 (Homo sapiens, UniProt P35916); experiment: biochemical; details: read-out: FLT4 inhibition
# [2] = target: ALK4 (Homo sapiens, UniProt P36896); details: 1 µM, ATP at Km
# [3] = target: CDK2/CYCLINA (Homo sapiens, UniProt P24941); details: 1 µM, ATP at Km
# [4] = target: CDK5/P25 (Homo sapiens, UniProt Q00535); details: 1 µM, ATP at Km
# [5] = target: CDK6/CYCLIND3 (Homo sapiens, UniProt Q00534); details: 1 µM, ATP at Km
# [6] = target: CHK2 (Homo sapiens, UniProt O96017); details: 1 µM, ATP at Km
# [7] = target: DYRK2 (Homo sapiens, UniProt Q92630); details: 1 µM, ATP at Km
# [8] = target: EGFR (Homo sapiens, UniProt P00533); details: 1 µM, ATP at Km
# [9] = target: EPHA1 (Homo sapiens, UniProt P21709); details: 1 µM, ATP at Km
# [10] = target: EPHA8 (Homo sapiens, UniProt P29322); details: 1 µM, ATP at Km
# [11] = target: EPHB3 (Homo sapiens, UniProt P54753); details: 1 µM, ATP at Km
# [12] = target: EPHB4 (Homo sapiens, UniProt P54760); details: 1 µM, ATP at Km
# [13] = target: FGFR1 (Homo sapiens, UniProt P11362); details: 1 µM, ATP at Km
# [14] = target: FGFR2 (Homo sapiens, UniProt P21802); details: 1 µM, ATP at Km
# [15] = target: FMS (Homo sapiens, UniProt P07333); details: 1 µM, ATP at Km
# [16] = target: HIPK2 (Homo sapiens, UniProt Q9H2X6); details: 1 µM, ATP at Km
# [17] = target: HIPK3 (Homo sapiens, UniProt Q9H422); details: 1 µM, ATP at Km
# [18] = target: IRR (Homo sapiens, UniProt P14616); details: 1 µM, ATP at Km
# [19] = target: JNK1ALPHA1 (Homo sapiens, UniProt P45983); details: 1 µM, ATP at Km
# [20] = target: JNK2ALPHA2 (Homo sapiens, UniProt P45984); details: 1 µM, ATP at Km
# [21] = target: JNK3 (Homo sapiens, UniProt P53779); details: 1 µM, ATP at Km
# [22] = target: MAPK2 (Homo sapiens, UniProt P28482); details: 1 µM, ATP at Km
# [23] = target: MARK1 (Homo sapiens, UniProt Q9P0L2); details: 1 µM, ATP at Km
# [24] = target: MST2 (Homo sapiens, UniProt Q13188); details: 1 µM, ATP at Km
# [25] = target: PAK5 (Homo sapiens, UniProt Q9P286); details: 1 µM, ATP at Km
# [26] = target: PDGFRBETA (Homo sapiens, UniProt P09619); details: 1 µM, ATP at Km
# [27] = target: PKCETA (Homo sapiens, UniProt P24723); details: 1 µM, ATP at Km
# [28] = target: PRAK (Homo sapiens, UniProt Q8IW41); details: 1 µM, ATP at Km
# [29] = target: PRK2 (Homo sapiens, UniProt Q16513); details: 1 µM, ATP at Km
# [30] = target: PRKX (Homo sapiens, UniProt P51817); details: 1 µM, ATP at Km
# [31] = target: CRAF (Homo sapiens, UniProt P04049); details: 1 µM, ATP at Km
# [32] = target: RSK1 (Homo sapiens, UniProt Q15418); details: 1 µM, ATP at Km
# [33] = target: SAPK2B (Homo sapiens, UniProt Q15759); details: 1 µM, ATP at Km
# [34] = target: SAPK4 (Homo sapiens, UniProt O15264); details: 1 µM, ATP at Km
# [35] = target: SGK (Homo sapiens, UniProt O00141); details: 1 µM, ATP at Km
# [36] = target: SRC (Homo sapiens, UniProt P12931); details: 1 µM, ATP at Km
# [37] = target: WNK2 (Homo sapiens, UniProt Q9Y3S1); details: 1 µM, ATP at Km
# [38] = target: ZIPK (Homo sapiens, UniProt O43293); details: 1 µM, ATP at Km
# [39] = target: DCAMKL2 (Homo sapiens, UniProt Q8N568); details: 1 µM, ATP at Km
# [40] = target: VRK2 (Homo sapiens, UniProt Q86Y07); details: 1 µM, ATP at Km
# [41] = target: TAO2 (Homo sapiens, UniProt Q9UL54); details: 1 µM, ATP at Km
# [42] = target: MTOR/FKBP12 (Homo sapiens, UniProt P42345); details: 1 µM, ATP at Km
# [43] = target: PIP4K2A (Homo sapiens, UniProt P48426); details: 1 µM, ATP at Km
# [44] = target: AURKC (Homo sapiens, UniProt Q9UQB9); details: 1 µM, ATP at Km
# [45] = target: PRKAA2 (Homo sapiens, UniProt P54646); details: 1 µM, ATP at Km
# SAPK2B, sequence (Q15759 whole entry): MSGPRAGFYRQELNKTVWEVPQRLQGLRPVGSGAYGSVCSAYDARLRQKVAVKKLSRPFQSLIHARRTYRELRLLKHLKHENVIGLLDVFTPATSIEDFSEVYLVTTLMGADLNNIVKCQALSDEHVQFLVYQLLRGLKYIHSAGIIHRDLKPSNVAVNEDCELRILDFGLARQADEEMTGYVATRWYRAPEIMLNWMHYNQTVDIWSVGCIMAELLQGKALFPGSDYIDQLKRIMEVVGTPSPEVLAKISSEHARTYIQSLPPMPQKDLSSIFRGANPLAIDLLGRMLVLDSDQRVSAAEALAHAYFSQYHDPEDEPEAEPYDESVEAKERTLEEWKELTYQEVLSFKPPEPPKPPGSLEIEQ
# SRC, sequence (P12931 whole entry): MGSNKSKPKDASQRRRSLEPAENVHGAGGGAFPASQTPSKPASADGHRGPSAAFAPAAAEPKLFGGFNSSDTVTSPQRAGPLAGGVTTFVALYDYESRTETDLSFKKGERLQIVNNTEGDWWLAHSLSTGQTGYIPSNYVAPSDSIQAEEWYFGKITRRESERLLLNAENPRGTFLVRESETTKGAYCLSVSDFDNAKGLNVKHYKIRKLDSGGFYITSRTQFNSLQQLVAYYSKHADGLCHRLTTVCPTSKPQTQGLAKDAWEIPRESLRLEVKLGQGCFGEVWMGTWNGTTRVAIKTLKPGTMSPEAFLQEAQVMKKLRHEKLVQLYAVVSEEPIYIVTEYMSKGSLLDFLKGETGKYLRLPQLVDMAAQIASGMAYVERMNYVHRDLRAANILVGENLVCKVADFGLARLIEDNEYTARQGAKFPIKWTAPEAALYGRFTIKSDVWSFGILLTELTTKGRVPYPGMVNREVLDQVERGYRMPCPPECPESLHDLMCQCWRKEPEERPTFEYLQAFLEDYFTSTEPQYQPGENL
# AURKC, sequence (Q9UQB9 whole entry): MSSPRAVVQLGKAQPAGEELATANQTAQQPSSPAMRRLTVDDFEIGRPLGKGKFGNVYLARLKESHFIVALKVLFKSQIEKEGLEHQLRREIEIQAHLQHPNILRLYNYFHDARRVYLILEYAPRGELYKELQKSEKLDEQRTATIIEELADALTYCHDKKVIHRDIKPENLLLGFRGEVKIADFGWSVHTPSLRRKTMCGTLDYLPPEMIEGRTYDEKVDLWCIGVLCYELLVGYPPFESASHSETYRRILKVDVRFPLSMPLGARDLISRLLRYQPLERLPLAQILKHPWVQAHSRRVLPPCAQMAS
# RSK1, sequence (Q15418 whole entry): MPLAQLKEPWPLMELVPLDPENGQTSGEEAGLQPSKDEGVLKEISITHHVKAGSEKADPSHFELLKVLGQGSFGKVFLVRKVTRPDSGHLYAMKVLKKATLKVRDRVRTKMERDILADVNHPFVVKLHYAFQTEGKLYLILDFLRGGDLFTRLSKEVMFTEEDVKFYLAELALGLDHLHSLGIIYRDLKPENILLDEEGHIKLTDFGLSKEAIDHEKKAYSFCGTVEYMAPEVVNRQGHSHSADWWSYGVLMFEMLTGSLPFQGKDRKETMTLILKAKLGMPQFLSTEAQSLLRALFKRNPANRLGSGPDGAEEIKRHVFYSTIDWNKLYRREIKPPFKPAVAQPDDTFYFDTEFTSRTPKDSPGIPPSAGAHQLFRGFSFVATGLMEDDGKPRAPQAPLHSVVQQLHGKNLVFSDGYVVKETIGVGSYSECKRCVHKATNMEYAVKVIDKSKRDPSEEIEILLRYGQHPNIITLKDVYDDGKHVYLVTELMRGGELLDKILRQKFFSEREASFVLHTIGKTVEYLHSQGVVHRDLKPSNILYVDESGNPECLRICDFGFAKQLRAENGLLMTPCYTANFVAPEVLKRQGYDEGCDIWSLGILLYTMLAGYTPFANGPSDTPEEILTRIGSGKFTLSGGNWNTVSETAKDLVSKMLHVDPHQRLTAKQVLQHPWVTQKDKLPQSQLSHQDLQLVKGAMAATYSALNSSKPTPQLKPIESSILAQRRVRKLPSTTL
# MTOR/FKBP12, sequence (P42345 1362-2549 limits assumed): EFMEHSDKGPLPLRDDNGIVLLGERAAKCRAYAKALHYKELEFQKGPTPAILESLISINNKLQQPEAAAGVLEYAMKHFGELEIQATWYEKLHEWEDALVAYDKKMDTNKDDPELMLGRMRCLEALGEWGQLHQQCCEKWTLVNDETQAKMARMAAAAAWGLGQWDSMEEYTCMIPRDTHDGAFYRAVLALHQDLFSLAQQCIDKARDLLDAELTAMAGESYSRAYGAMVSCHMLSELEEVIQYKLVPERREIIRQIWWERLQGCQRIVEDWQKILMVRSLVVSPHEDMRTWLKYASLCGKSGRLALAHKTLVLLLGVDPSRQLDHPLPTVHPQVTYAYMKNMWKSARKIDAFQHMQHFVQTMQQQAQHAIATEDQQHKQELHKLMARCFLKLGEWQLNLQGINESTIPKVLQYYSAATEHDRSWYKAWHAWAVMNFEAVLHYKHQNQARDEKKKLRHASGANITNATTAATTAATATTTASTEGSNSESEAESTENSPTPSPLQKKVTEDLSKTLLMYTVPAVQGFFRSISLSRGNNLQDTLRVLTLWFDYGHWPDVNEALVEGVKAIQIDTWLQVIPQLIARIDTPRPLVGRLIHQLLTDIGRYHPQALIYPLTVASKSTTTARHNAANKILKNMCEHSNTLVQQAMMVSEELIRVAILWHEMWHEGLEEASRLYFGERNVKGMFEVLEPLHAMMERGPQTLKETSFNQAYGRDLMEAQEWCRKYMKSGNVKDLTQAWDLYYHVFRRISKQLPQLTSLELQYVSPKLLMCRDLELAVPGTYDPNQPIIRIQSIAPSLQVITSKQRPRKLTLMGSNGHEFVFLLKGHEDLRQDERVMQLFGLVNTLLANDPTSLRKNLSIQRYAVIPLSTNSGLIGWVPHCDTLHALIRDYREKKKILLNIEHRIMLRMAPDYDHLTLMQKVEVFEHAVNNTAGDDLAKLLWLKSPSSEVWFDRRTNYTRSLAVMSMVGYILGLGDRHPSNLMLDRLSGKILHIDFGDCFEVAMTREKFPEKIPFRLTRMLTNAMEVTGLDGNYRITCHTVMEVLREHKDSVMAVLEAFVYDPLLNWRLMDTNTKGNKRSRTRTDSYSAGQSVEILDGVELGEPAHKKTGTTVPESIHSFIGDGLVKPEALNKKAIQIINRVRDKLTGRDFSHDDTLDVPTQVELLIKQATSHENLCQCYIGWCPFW
# MST2, sequence (Q13188 whole entry): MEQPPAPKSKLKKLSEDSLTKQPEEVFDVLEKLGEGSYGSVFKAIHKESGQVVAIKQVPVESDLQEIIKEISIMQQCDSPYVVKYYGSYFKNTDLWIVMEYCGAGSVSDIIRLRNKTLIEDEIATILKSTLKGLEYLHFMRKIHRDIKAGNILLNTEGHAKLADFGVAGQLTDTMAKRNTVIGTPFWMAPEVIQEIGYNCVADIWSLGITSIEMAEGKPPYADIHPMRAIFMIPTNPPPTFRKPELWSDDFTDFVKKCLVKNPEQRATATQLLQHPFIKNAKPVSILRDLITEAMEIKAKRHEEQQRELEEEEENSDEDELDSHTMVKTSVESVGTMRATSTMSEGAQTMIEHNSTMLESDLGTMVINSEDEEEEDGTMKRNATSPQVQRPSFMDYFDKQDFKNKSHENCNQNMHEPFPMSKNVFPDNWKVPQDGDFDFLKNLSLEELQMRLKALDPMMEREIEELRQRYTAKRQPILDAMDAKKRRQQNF
# ZIPK, sequence (O43293 whole entry): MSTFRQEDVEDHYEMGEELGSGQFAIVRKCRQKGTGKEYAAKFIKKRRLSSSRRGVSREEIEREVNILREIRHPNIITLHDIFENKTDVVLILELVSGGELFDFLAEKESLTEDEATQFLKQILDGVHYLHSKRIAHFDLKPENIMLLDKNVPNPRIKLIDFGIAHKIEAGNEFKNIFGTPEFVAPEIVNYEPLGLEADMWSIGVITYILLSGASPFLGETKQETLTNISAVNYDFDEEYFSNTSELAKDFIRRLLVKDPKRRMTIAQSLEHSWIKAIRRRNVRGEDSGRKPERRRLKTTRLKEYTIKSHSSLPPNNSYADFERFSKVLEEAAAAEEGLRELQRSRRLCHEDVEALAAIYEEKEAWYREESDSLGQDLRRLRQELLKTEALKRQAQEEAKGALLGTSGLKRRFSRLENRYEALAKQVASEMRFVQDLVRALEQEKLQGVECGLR
# CRAF, sequence (P04049 whole entry): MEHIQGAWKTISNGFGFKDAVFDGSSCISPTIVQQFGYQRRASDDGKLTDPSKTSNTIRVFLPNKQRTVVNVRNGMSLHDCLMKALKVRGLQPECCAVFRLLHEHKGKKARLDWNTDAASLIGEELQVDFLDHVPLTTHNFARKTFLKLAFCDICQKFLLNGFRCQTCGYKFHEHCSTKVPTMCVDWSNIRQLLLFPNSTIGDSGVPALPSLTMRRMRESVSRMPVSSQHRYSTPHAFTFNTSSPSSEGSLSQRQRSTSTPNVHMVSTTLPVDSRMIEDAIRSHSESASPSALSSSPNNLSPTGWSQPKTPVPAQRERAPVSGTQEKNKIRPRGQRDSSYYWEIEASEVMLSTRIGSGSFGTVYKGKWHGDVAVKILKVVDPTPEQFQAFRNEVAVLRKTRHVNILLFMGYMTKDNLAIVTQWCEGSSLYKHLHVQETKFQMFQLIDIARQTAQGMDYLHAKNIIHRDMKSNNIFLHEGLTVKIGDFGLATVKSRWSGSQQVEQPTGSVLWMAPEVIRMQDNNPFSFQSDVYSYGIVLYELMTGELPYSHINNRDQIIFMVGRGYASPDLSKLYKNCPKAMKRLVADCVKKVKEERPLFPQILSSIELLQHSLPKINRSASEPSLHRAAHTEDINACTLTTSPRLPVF
compound,measurement,setting,value
COC1CN(C(=O)c2ccc3c(N)ncc(-c4ccc(-c5cnn(C)c5)cc4)c3n2)C1 [Compound 51],inhibition at 1 µM,[1],54%
same,percentage effect,[2],9%
same,percentage effect,[3],5%
same,percentage effect,[4],3%
same,percentage effect,[5],-10%
same,percentage effect,[6],-1%
same,percentage effect,[7],-6%
same,percentage effect,[8],-45%
same,percentage effect,[9],7%
same,percentage effect,[10],-9%
same,percentage effect,[11],2%
same,percentage effect,[12],8%
same,percentage effect,[13],10%
same,percentage effect,[14],-3%
same,percentage effect,[15],-37%
same,percentage effect,[16],-8%
same,percentage effect,[17],6%
same,percentage effect,[18],-2%
same,percentage effect,[19],-4%
same,percentage effect,[20],-6%
same,percentage effect,[21],-33%
same,percentage effect,[22],6%
same,percentage effect,[23],-5%
same,percentage effect,[24],-5%
same,percentage effect,[25],-23%
same,percentage effect,[26],2%
same,percentage effect,[27],5%
same,percentage effect,[28],15%
same,percentage effect,[29],-3%
same,percentage effect,[30],43%
same,percentage effect,[31],-20%
same,percentage effect,[32],13%
same,percentage effect,[33],0%
same,percentage effect,[34],2%
same,percentage effect,[35],14%
same,percentage effect,[36],7%
same,percentage effect,[37],18%
same,percentage effect,[38],25%
same,percentage effect,[39],0%
same,percentage effect,[40],4%
same,percentage effect,[41],-5%
same,percentage effect,[42],-4%
same,percentage effect,[43],-5%
same,percentage effect,[44],6%
same,percentage effect,[45],-1%
COC1CN(C(=O)c2ccc3c(N)ncc(-c4ccc(-c5cnn(C)c5)cc4)c3c2)C1 [Compound 59],inhibition at 1 µM,[1],62%
same,percentage effect,[2],8%
same,percentage effect,[3],-5%
same,percentage effect,[4],11%
same,percentage effect,[5],-14%
same,percentage effect,[6],-10%
same,percentage effect,[7],-9%
same,percentage effect,[8],14%
same,percentage effect,[9],4%
same,percentage effect,[10],-12%
same,percentage effect,[11],-10%
same,percentage effect,[12],6%
same,percentage effect,[13],11%
same,percentage effect,[14],-6%
same,percentage effect,[15],-14%
same,percentage effect,[16],16%
same,percentage effect,[17],4%
same,percentage effect,[18],-5%
same,percentage effect,[19],-11%
same,percentage effect,[20],2%
same,percentage effect,[21],-8%
same,percentage effect,[22],-4%
same,percentage effect,[23],-14%
same,percentage effect,[24],-14%
same,percentage effect,[25],-7%
same,percentage effect,[26],17%
same,percentage effect,[27],-4%
same,percentage effect,[28],-17%
same,percentage effect,[29],-11%
same,percentage effect,[30],6%
same,percentage effect,[31],0%
same,percentage effect,[32],-14%
same,percentage effect,[33],43%
same,percentage effect,[34],-13%
same,percentage effect,[35],14%
same,percentage effect,[36],-6%
same,percentage effect,[37],-3%
same,percentage effect,[38],-5%
same,percentage effect,[39],0%
same,percentage effect,[40],-3%
same,percentage effect,[41],-7%
same,percentage effect,[42],4%
same,percentage effect,[43],1%
same,percentage effect,[44],-10%
same,percentage effect,[45],2%
